Consider 32 molecules from patent publication US11168088B2 (SHANGHAI HAIYAN PHARMACEUTICAL TECHNOLOGY CO., LTD., priority 2016, dated 2021).

Molecules are shown by their SMILES. A value given as a limit tells only on which side of the number the result lay.

For orientation: IC50 means the midpoint of a concentration-inhibition curve.

What all share (format): biochemical
For one assay, the target named is CDK4 (Homo sapiens (Human), UniProt P11802). Nature of the assay: In vitro kinase test (LANCE Ultra), CDK4. From the text:
(§1) Recombinant CDK1/CCNB1 and CDK9/CCNT were purchased from BPS; CDK2/CCNA1, CDK4/CCND1 and CDK6/CCND1 were purchased from Invitrogen; CDK4/CycD3 and CDK6/CycD3 were purchased from Carna. Adenosine triphosphate (ATP) was purchased from Life tech. Substrate Ulight-4EBP1 and the corresponding detection antibody were purchased from Perkinelmer. The detection system was Perkinelmer's LANCE Ultra system.
(§2) In the kinase test, a compound to be tested was 1:3 diluted for 8 gradient points, added into a reaction plate, and then added an appropriate amount of recoinbinase. A buffer [50 mM HEPES […], 10 mM MgCl2, 3 mM MnCl2, 1 mM EGTA, 0.01% Tween-20, 1 mM TCEP] containing ATP/Ulight-4EBP1 premix with predetermined concentration was subsequently added, and the kinase reaction was started at room temperature. A test solution pre-mixed with 10 mM EDTA and detection antibody was added after a suitable reaction time, and then the fluorescence value was read on Tecan infinite pro after reacting for 1 hour at room temperature. The IC50 was calculated using a four-factor model fitting in a XLfit software.
Background: TR-FRET usually uses a lanthanide donor and a delayed reading to cut background.

In the next assay the target is CDK6 (Homo sapiens (Human), UniProt Q00534). The experiment in a line: In vitro kinase test (LANCE Ultra), CDK6.
Sequence of CDK6 (Q00534 whole entry, looked up): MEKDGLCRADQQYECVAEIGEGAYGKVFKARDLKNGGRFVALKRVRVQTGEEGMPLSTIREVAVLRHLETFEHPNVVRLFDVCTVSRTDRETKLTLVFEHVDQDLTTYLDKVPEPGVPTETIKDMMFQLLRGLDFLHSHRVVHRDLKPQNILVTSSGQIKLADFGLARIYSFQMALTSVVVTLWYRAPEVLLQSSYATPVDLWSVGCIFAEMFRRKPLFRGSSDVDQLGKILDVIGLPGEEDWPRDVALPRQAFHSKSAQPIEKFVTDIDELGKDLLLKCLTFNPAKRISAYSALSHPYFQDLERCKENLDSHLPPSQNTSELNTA
Sequence of CDK6 (P24385 whole entry partner, looked up): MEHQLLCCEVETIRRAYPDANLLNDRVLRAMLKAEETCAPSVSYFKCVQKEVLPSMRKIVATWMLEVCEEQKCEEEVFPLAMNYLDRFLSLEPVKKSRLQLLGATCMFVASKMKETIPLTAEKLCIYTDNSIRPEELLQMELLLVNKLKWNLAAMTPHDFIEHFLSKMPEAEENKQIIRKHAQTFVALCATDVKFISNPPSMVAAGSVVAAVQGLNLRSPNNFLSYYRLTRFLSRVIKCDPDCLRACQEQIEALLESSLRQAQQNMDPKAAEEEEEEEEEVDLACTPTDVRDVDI
Excerpt: as §1, §2

Another assay has as its target CDK1 (Homo sapiens (Human), UniProt P06493). The experiment in a line: In vitro kinase test (LANCE Ultra), CDK1.
Excerpt: as §1, §2

For another assay, the target named is CDK2 (Homo sapiens (Human), UniProt P24941). Nature of the assay: In vitro kinase test (LANCE Ultra), CDK2.
Excerpt: as §1, §2

Sequence of CDK4 (P11802 whole entry, looked up): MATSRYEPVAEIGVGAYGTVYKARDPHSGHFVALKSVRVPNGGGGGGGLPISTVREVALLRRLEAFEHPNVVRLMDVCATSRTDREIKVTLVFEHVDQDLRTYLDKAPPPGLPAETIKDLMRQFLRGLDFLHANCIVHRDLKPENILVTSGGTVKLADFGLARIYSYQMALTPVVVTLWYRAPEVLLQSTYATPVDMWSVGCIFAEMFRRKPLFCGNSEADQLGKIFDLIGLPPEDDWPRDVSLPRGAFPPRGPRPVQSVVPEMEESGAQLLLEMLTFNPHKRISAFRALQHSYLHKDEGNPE
Sequence of CDK4 (P24385 whole entry partner, looked up): as the sequence (P24385 whole entry partner, looked up) above
Sequence of CDK1 (P06493 whole entry): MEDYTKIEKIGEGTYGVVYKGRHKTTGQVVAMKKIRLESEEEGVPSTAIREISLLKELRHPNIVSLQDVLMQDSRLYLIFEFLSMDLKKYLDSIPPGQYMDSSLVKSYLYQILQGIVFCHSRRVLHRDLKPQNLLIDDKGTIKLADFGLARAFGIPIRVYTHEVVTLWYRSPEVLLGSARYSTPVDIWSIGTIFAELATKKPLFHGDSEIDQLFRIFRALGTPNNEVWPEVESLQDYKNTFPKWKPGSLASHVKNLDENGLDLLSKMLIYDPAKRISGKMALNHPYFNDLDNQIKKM
Sequence of CDK1 (P14635 whole entry partner): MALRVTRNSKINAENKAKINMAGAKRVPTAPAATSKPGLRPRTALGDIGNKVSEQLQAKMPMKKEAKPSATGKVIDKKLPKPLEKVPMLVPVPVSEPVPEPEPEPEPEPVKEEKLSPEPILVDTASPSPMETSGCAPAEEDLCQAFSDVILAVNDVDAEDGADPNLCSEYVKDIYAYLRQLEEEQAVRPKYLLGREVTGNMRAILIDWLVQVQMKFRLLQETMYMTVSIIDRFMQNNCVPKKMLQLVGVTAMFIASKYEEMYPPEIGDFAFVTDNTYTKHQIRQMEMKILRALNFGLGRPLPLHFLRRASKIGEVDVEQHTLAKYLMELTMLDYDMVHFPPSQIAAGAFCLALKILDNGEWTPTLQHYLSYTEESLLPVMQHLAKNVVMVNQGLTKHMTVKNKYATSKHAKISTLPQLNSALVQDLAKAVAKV

Consider `CC(C)c1c2c(nn1C)C(C)(C(C)O)Cc1cnc(Nc3ccc(N4CCNCC4)cn3)nc1-2` (centres unmarked) [Compound P-60, 1-(9-isopropyl-6,8-dimethyl-2-(5-(piperazin-1-yl)pyridin-2-ylamino)-6,8-dihydro-5H-pyrazolo[3,4-H]quinazolin-6-yl)ethanol], for which the IC50 against CDK4 was 160 nM; against CDK6, 762 nM.
For `CCN1CCN(Cc2ccc(Nc3ncc4c(n3)-c3c(cnn3C(C)C)CC4)nc2)CC1` [Compound P-10], in that order: 16 nM and 132 nM.
Turning to `CC(C)c1c2c(nn1C)C1(CC1)c1cnc(Nc3ccc(N4CCNCC4)cn3)nc1-2` [Compound P-57], the IC50 at CDK4 turned out to be 3 nM; against CDK6 it was 58 nM; at CDK1, 942 nM; at CDK2 it was 803 nM.
On to `CC(C)c1[nH]nc2c1-c1nc(Nc3ccc(N4CCNCC4)cn3)ncc1CC2` [Compound P-29, 9-isopropyl-N-(5-(piperazin-1-yl)pyridin-2-yl)-6,8-dihydro-5H-pyrazolo[3,4-H]quinazolin-2-amine], for which the IC50 on CDK4 was 7 nM; at CDK6, 17 nM; on CDK1, over 1000 nM; at CDK2, 457 nM.
As for `CCn1nc2c(c1C(C)C)-c1nc(Nc3ccc(N4CCNCC4)cn3)ncc1CC2` [Compound P-4, 8-ethyl-9-isopropyl-N-(5-(piperazin-1-yl)pyridin-2-yl)-6,8-dihydro-5H-pyrazolo[3,4-H]quinazolin-2-amine], the IC50 against CDK4 turned out to be 5 nM; on CDK6, 33 nM; against CDK1, 7960 nM; against CDK2, 4760 nM.
As for `CCc1nc2c(n1C1CCCC1)-c1nc(Nc3ccc(N4CCNCC4)cn3)ncc1C2` [Compound P-34], the IC50 came to 23 nM against CDK4, 394 nM against CDK6, 651 nM against CDK1 and 1720 nM at CDK2.
In the case of `CCN1CCN(c2ccc(Nc3ncc4c(n3)-c3c(cnn3C(C)C)CC4)nc2)CC1` [Compound P-12], the values for the IC50 on CDK4, at CDK6 and against CDK1 were 8 nM, 36 nM and over 10000 nM, respectively.
As to `c1cc(Nc2ncc3c(n2)-c2c(cnn2C2CCCCC2)CC3)ncc1N1CCNCC1` [Compound P-35], the IC50 came to 74 nM against CDK4 and 252 nM against CDK6.
The like results for `CC(C)n1ncc2c1-c1nc(Nc3ccc(N4CCNCC4)cn3)ncc1CC2(C)C` [Compound P-51] were, in that order, 42 nM and 117 nM.
With `CCc1nc2c(n1C(C)C)-c1nc(Nc3ccc(CN4CCN(CC)CC4)cn3)ncc1C2` [Compound P-5], the IC50 on CDK4 stood at 22 nM; at CDK6, 256 nM; against CDK1, 5310 nM.
`Cc1nc2c(n1C(C)C)-c1nc(Nc3ccc(N4CCNCC4)cn3)ncc1CC2` [Compound P-24, 1-isopropyl-2-methyl-N-(5-(piperazin-1-yl)pyridin-2-yl)-4,5-dihydro-1H-imidazo[4,5-H]quinazolin-8-amine]: the IC50 at CDK4 worked out at 3 nM; against CDK6, 11 nM; at CDK1, 3570 nM; on CDK2, 816 nM.
As for `Cc1c2c(nn1C)CCc1cnc(Nc3ccc(N4CCN(C)CC4)cn3)nc1-2` [Compound P-66], the IC50 on CDK4 came out at 23 nM; against CDK6 it was 63 nM; against CDK1, 926 nM; against CDK2 it was 674 nM.
With `Cc1nc2c(n1CC1CC1)-c1nc(Nc3ccc(N4CCNCC4)cn3)ncc1C2` [Compound P-28], the IC50 on CDK4 was found to be 41 nM; on CDK6, 121 nM.
For `CCn1nc2c(c1C(C)C)-c1nc(Nc3ccc(N4CCNCC4)cn3)ncc1C(C)(C)C2` [Compound P-48], in that order: 97 nM and 897 nM.
`Cc1nc2c(n1C1CC1)-c1nc(Nc3ccc(N4CCNCC4)cn3)ncc1C2` [Compound P-11]: the IC50 against CDK4 is 43 nM; against CDK6, 165 nM.
On to `Cc1nc2sc3cnc(Nc4ccc(N5CCNCC5)cn4)nc3c2n1C(C)C` [Compound P-65], for which the IC50 against CDK4 is 1070 nM; against CDK6, over 3000 nM.
As to `CC(C)n1ncc2c1-c1nc(Nc3ccc(N4CCNCC4)cn3)ncc1CC2` [Compound P-25, 1-isopropyl-N-(5-(piperazin-1-yl)pyridin-2-yl)-4,5-dihydro-1H-pyrazolo[4,3H]quinazolin-8-amine], the IC50 against CDK4 is 9 nM; against CDK6 it was 31 nM; against CDK1, over 10000 nM.
For `CCN1CCN(Cc2ccc(Nc3ncc4c(n3)-c3c(nn(CC)c3C(C)C)CC4)nc2)CC1` [Compound P-2], in that order: 4 nM, 38 nM and 427 nM.
`Cc1nn(C2CCCC2)c2c1CCc1cnc(Nc3ccc(N4CCNCC4)cn3)nc1-2` [Compound P-43]: the IC50 on CDK4 was determined as 9 nM; on CDK6, 46 nM.
The like results for `CCN1CCN(Cc2ccc(Nc3ncc4c(n3)-c3c(nn(CC)c3C(C)C)C4)nc2)CC1` [Compound P-45] were, in that order, 37 nM and 451 nM.
For `CCN1CCN(Cc2ccc(Nc3ncc4c(n3)-c3c(nn(CC)c3C(C)C)C(C)(C)C4)nc2)CC1` [Compound P-50], in that order: 6 nM and 40 nM.
The like results for `CCc1nc2c(n1C(C)C)-c1nc(Nc3ccc(N4CCNCC4)cn3)ncc1C2` [Compound P-22] were, in that order, 20 nM and 43 nM.
On to `CC(=O)C1(C)Cc2cnc(Nc3ccc(N4CCNCC4)cn3)nc2-c2c1ncn2C(C)C` (centres unmarked) [Compound P-63], for which the values for the IC50 at CDK4 and on CDK6 were 56 nM and 160 nM, respectively.
For `CCN1CCN(Cc2ccc(Nc3ncc4c(n3)-c3c(nc(C)n3C(C)C)CC4)nc2)CC1` [Compound P-41], in that order: 5 nM and 44 nM.
For `c1cc(Nc2ncc3c(n2)-c2c(cnn2C2CCOC2)CC3)ncc1N1CCNCC1` (centres unmarked) [Compound P-37], in that order: 41 nM and 362 nM.
The like results for `CCn1nc2c(c1C(C)C)-c1nc(Nc3ccc(N4CCNCC4)cn3)ncc1OC2` [Compound P-49] were, in that order, 7 nM and 70 nM.
`CC(C)c1c2c(nn1C)CC1(CC1)c1cnc(Nc3ccc(N4CCNCC4)cn3)nc1-2` [Compound P-56]: the IC50 on CDK4 turned out to be 103 nM; against CDK6 it was 831 nM.
`c1cc(Nc2ncc3c(n2)-c2nn(C4CCCC4)cc2CC3)ncc1N1CCNCC1` [Compound P-36]: the IC50 on CDK4 came to 138 nM; against CDK6, 714 nM.
The like results for `CC(C)c1c2c(nn1C)CC(C)(C)c1cnc(Nc3ccc(N4CCNCC4)cn3)nc1-2` [Compound P-44] were, in that order, 173 nM and 415 nM.
The like results for `CC(=O)C1(C)Cc2cnc(Nc3ccc(N4CCNCC4)cn3)nc2-c2c1nn(C)c2C(C)C` (centres unmarked) [Compound P-55] were, in that order, 128 nM and 523 nM.
For the molecule `CC(C)n1nc(C#N)c2c1-c1nc(Nc3ccc(N4CCNCC4)cn3)ncc1CC2` [Compound P-52, 1-isopropyl-8-(5-(piperazin-1-yl)pyridin-2-ylamino)-4,5-dihydro-1H-pyrazolo[4,3-H]quinazolin-3-carbonitrile], the IC50 against CDK4 is 6 nM; against CDK6, 33 nM.
The like results for `CC(C)c1c2c(nn1C(F)F)Cc1cnc(Nc3ccc(N4CCNCC4)cn3)nc1-2` [Compound P-27] were, in that order, 6 nM and 8 nM.
